In patent US20230286946A1, “DIFLUOROMETHYL-PYRIDIN-2-YL TRIAZOLES” (Boehringer Ingelheim International GmbH, priority 2020, published 2023):

Tests used:
[1] = biological target: T1, human GABAA α5β3γ2s receptor (Homo sapiens, UniProt P18507+P31644); test: Assay A: in vitro inhibition of 3H-flumazenil binding, HEK cells expressing the human GABAA α5β3γ2s receptor; conditions: read-out: Assay A: GABAA α 5 β 3 γ 2s Ki
T1 sequence (P18507 1-475): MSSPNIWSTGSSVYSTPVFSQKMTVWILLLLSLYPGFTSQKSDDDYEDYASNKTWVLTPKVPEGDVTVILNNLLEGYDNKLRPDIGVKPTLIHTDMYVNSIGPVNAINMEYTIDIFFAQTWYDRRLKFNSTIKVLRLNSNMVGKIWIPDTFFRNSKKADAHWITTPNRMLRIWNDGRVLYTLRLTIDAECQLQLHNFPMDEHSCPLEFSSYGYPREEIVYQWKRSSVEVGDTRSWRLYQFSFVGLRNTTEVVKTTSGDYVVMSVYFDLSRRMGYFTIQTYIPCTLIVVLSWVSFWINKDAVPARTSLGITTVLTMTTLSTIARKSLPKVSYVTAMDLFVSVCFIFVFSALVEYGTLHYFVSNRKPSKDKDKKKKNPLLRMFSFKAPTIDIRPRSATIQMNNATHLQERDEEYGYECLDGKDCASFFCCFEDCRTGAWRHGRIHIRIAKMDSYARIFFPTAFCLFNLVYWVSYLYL
T1 sequence (P31644 1-462): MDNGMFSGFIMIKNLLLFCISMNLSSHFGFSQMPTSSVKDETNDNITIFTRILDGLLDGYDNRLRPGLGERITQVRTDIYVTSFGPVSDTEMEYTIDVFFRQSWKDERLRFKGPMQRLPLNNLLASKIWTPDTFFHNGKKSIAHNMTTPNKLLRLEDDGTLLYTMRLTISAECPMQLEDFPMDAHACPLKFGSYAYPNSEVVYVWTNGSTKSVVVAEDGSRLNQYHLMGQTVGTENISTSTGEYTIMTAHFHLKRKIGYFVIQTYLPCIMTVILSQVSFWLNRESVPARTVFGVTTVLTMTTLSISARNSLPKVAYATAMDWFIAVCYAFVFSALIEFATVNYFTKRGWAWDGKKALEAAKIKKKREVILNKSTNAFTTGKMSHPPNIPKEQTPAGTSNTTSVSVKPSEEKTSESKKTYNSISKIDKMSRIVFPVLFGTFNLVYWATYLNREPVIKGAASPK
Method: Cell Cultures and Membrane Preparation
HEK-293 cell lines with stable expression of recombinant human GABAA α5ß3 γ2s receptors (plasmid H46/E9/B10) are seeded in T175 polystyrene flasks or roller bottles (1700 cm^2, Fisher Scientific CCI-431191), and cultured (37° C., 5% CO2) in Dulbecco's Modified Eagle Medium (DMEM) with GlutaMAX™ supplemented with 10% fetal bovine serum and one or both of the following antibiotics: hygromycin B ([…]; γ2 subunit) or G418 (0.5 mg/ml; […]).
When the cultures reach confluency, the DMEM is removed and the cells are washed (10 ml for T175 flasks; 50 ml for roller bottles) once in Dulbecco's Phosphate Buffered Saline (DPBS). Following addition of DPBS to the cultures (10 ml for T175 flasks; 100 ml for roller bottles) for approximately 5 min cells are easily detached from the surface by shaking or tapping the flask gently. The cell suspension is transferred to Falcon tubes and centrifuged at 23,500×g for 10 min at 2° C. The pellet is washed once in 15 ml Tris-citrate buffer (50 mM, pH 7.1) using an Ultra-Turrax homogenizer and centrifuged at 2° C. for 10 min at 27,000×g. The washed pellet is re-suspended in 15 ml Tris-citrate buffer and frozen at −80° C. until the day of the binding experiment.
On the day of the experiment the cell membrane preparation is thawed and centrifuged at 2° C. for 10 min at 27,000×g. The pellet is re-suspended, using an Ultra-Turrax homogenizer in Tris-citrate buffer, to 15-50 µg protein per assay and then used for binding assays.
Non-specific binding is determined using clonazepam ([…]).
All dilutions of test compounds and incubation of assay are performed in glass vials/96-vial plates. […] Compounds are dissolved in 100% DMSO (10 mM stock), diluted in 48% ethanol-water, and tested in triplicate in serial 1:3 or 1:10 dilutions. When screening large numbers of compounds only one concentration of each compound is tested in single wells. Reference compounds are not included routinely, but for each experiment performed total and nonspecific binding is compared to data obtained during validation of the assay.
Binding is either terminated by rapid filtration onto
1) Whatman GF/C glass fibre filters using a Brandel Cell harvester, followed by 5 washes with 1 ml ice-cold buffer or onto 2) UniFilter GF/C glass fibre filter plates using a Tomtec cell harvester, followed by washing with approximately 5 ml ice-cold buffer.
The amount of radioactivity on the filters is determined by conventional liquid scintillation counting using a
1) Tri-Garb™ counter (PerkinElmer Life and Analytical Sciences) for separate large filters or
2) Topcount™ counter (PerkinElmer Life and Analytical Sciences) for 96-well filter plates.
Specific binding is total binding minus non-specific binding.
The IC50 value for a test compound is determined based on the equation: […]
where B is the binding in percentage of total specific binding; C is the concentration of test compound; and n is the Hill coefficient. For screening purposes n is set to 1. The IC50 value is calculated from the concentration response curves by the non-linear regression method using the curve-fitting program GraphPad Prism.
The Ki value for a test compound can be calculated from the IC50 value using the equation by Cheng and Prusoff: […]

[2] = Metabolic stability in human liver microsomes (Human MST); type: in vitro ADME; conditions: pH 7.6, pooled human liver microsomes, 37° C., read-out: Human MST t½
Method: Assessment of Metabolic Stability in Human Liver Microsomes (Human MST) The metabolic stability of the compounds according to the invention may be investigated as follows: The metabolic degradation of the test compound is assayed at 37° C. with pooled human liver microsomes. The final incubation volume of 100 μL per time point contains TRIS buffer pH 7.6 at room temperature (0.1 M), MgCl2 (5 mM), microsomal protein (1 mg/mL) and the test compound at a final concentration of 1 μM. Following a short pre-incubation period at 37° C., the reactions are initiated by addition of beta-nicotinamide adenine dinucleotide phosphate, reduced form (NADPH, 1 mM), and terminated by transferring an aliquot into solvent after different time points. After centrifugation (10000 g, 5 min), an aliquot of the supernatant is assayed by LCMS/MS for the amount of parent compound. The half-life (t1/2) is determined by the slope of the semi-logarithmic plot of the concentration-time profile.

Which Ki [1] does the source give for `Cc1nnn(-c2ccc(C(F)F)cn2)c1COc1ccc(-c2cnn(C)c2C)nn1` [Example 9] here?
The Ki was 13 nM.

What about the half-life at 1 μM [2] of the same molecule?
The half-life at 1 μM was 1.68 h.
